A short description of test [1]: Cytotoxicity against human Hs683 cells after 72 hrs by MTT colorimetric assay. The format is functional, cell-based. The note with it: Hs 683, 72 h.
In another test the test system is B16-F10. Nature of the test: Cytotoxicity against mouse B16F10 cells after 72 hrs by MTT colorimetric assay. The note with it: B16-F10, 72 h. The format is functional, cell-based.
A further test has as its system A549. In words: Cytotoxicity against human A549 cells after 72 hrs by MTT colorimetric assay. To be noted: A549, 72 h. The format is functional, cell-based. In general terms: Tetrazolium assays rely on reduction of a dye to a coloured formazan, in cell work by metabolically active cells.
In the next test the test system is SK-MEL. Nature of the test: Cytotoxicity against human SK-MEL cells after 72 hrs by MTT colorimetric assay. In kind it is functional, cell-based.
Test [2] can be described thus: Cytotoxicity against human OE21 cells after 72 hrs by MTT colorimetric assay. The format is functional, cell-based. The note with it: OE21, 72 h.
Test [3] is described as follows: Cytotoxicity against human U373 cells after 72 hrs by MTT colorimetric assay. In kind it is functional, cell-based, U-373MG ATCC. To be noted: U373 MG.

Counter-ions that a name gives are not always drawn.

Turning to `COC1C=C[C@@]23CCN(Cc4cc5c(cc42)OCO5)[C@@H]3C1` (stereo partly specified), the IC50 – broadly, the concentration that gives 50% inhibition – in test [1] is over 10 µM; in the test with B16-F10, over 10 µM; with A549 it was over 10 µM; in the test on SK-MEL, over 10 µM; in test [2], 97 µM; in test [3], over 10 µM.

As to `CO[C@@H]1C=C[C@@]23c4cc5c(cc4CN(C[C@@H]2O)[C@H]3C1)OCO5` [(+)-HAEMANTHAMINE], the IC50 in test [1] came to 7 µM; in the test with B16-F10, 6.8 µM; with A549 it was 4.5 µM; with SK-MEL, 8.5 µM; in test [2], 6.8 µM; in test [3], 7.7 µM.

`COC1=C[C@@H]2CCN3Cc4cc5c(cc4[C@@H]([C@H]23)[C@@H]1O)OCO5` [AMARBELLISINE]: the IC50 in test [1] was found to be 8.2 µM; with SK-MEL, 8.3 µM; in test [2] it was 6.7 µM; in test [3] it was 7.2 µM.

Turning to `COc1c2c(cc3c1OCO3)[C@]13C=C[C@H](OC)C[C@H]1N(C2)C[C@@H]3O` [AMBELLINE], the IC50 in test [1] is over 10 µM; in the test with B16-F10, over 10 µM; in the test with A549 it was over 10 µM; in the test with SK-MEL, over 10 µM; in test [2], 86 µM; in test [3], over 10 µM.

For the molecule `COc1c2c(cc3c1OCO3)[C@@]13CCN(C2)[C@@H]1CC=C[C@H]3O` [BUPHANAMINE], the IC50 (in test [1]; in the test on B16-F10; in the test on A549; in the test with SK-MEL; in test [2]; in test [3]) was over 10 µM in each case.

With `O[C@@H]1CC=C2CCN3Cc4cc5c(cc4[C@H]1[C@@H]23)OCO5` [CARANINE], the IC50 (in test [1]; in the test with B16-F10; with A549; with SK-MEL; in test [2]; in test [3]) was over 10 µM throughout.

Regarding `CN1CC[C@@H]2C[C@H](O)[C@@H]3OC(=O)c4cc5c(cc4[C@H]3[C@@H]21)OCO5` [CLIVONINE HYDROCHLORIDE], the concentration for half-maximal inhibition (IC50) (in test [1]; in the test with B16-F10; in the test with A549; with SK-MEL; in test [2]; in test [3]) was over 10 µM each time.

For `COc1cc2c(cc1OC)[C@@H]1[C@H](O)[C@@H](OC)C=C3CCN(C2)[C@H]31` [GALANTHINE], the IC50 (in test [1]; in the test on B16-F10; in the test on A549; in the test with SK-MEL; in test [2]; in test [3]) was over 10 µM in each case.

For `CO[C@@H]1C=C[C@@]23c4cc5c(cc4[C@@H](O)N(C[C@H]2O)[C@H]3C1)OCO5` [HAEMANTHIDINE], the IC50 in test [1] was 4.3 µM; in the test with B16-F10 it was 3.1 µM; in the test with A549 it was 4 µM; with SK-MEL, 4.2 µM; in test [2] it was 3.7 µM; in test [3], 3.8 µM.

On to `O[C@H]1[C@H]2c3cc4c(cc3CN3CCC(=C[C@@H]1O)[C@H]23)OCO4` [LYCORINE], for which the IC50 in test [1] turned out to be 6.9 µM; in the test with A549, 4.2 µM; in the test with SK-MEL, 8.4 µM; in test [2], 4.5 µM; in test [3], 7.6 µM.

Consider `CC(O)CC(=O)O[C@H]1C[C@H]2CCN(C)[C@H]2[C@@H]2c3cc4c(cc3C(=O)O[C@H]21)OCO4` (stereo partly specified) [NOBILISITINE B], for which the IC50 (in test [1]; in the test on B16-F10; with A549; in the test on SK-MEL; in test [2]; in test [3]) was over 10 µM throughout.

Take `COc1cc2c(cc1O)CN1CCC3=CC[C@@H](O)[C@@H]2[C@@H]31` [NORPLUVINE]: the IC50 (in test [1]; in the test with B16-F10; in the test with A549; with SK-MEL; in test [2]; in test [3]) was over 10 µM throughout.

Turning to `COc1cc2c(cc1O)[C@@H]1[C@H](O)[C@@H](O)C=C3CCN(C2)[C@H]31` [PSEUDOLYCORINE], the IC50 was 7.9 µM in test [1]; 7.4 µM in the test with A549; over 10 µM in the test with SK-MEL; 7.9 µM in test [2]; 7.8 µM in test [3].

As for `CO[C@@H]1C=C[C@@]23c4cc5c(cc4CO[C@]2(O)CN(C)[C@H]3C1)OCO5` [TAZETTINE], the IC50 in test [1] was over 10 µM; in the test on B16-F10, over 10 µM; in the test with A549 it was over 10 µM; with SK-MEL, over 10 µM; in test [2], 78 µM; in test [3] it was over 10 µM.

Regarding `[O-]c1cc2c3c(c1)c1cc4c(cc1c[n+]3CC2)OCO4` [UNGEREMINE], the IC50 in test [1] was over 10 µM; with B16-F10, over 10 µM; with A549, over 10 µM; in the test on SK-MEL, over 10 µM; in test [2] it was over 10 µM; in test [3], 83 µM.
